According to patent US5326788A, “Biological fluid purification system” (priority 1992, dated 1994):

Test: Addition of hypericin to whole blood: standard blood chemistries, complete blood count, coagulation profile
Set-up: species or system human; MCV / MCH / MCHC / Bilirubin (direct): unit not given here
Description: Triplicate samples of blood were drawn from two normal individuals directly into vacuum tubes. Into one set of tubes was added hypericin dissolved in 10% ethanol, 40% propylene glycol, 50% water to a final concentration of hypericin of 0.1 micrograms/ml of blood. A second set of tubes received hypericin at 1.0 micrograms/ml of blood. The final concentration of ethanol was 0.01% and of propylene glycol 0.04% in each sample, respectively. The third set served as an untreated control. Hypericin-treated and untreated samples were taken directly to a clinical laboratory for testing of standard blood chemistries, complete blood count, and a coagulation profile.

Structure (SMILES): Cc1cc(O)c2c(=O)c3c(O)cc(O)c4c5c(O)cc(O)c6c(=O)c7c(O)cc(C)c8c1c2c(c34)c(c78)c65 [hypericin]
- effect on blood chemistries and hematologic parameters (summary) (1.0 and 0.1 micrograms/ml): no significant effect
- BUN (Subject #1, 0.1 micrograms/ml): 13 mg/dL
- Bilirubin (Subject #1, 0.1 micrograms/ml): 0.5 mg/dL
- Bilirubin (direct) (Subject #1, 0.1 micrograms/ml): 0.1
- CO2 (Subject #1, 0.1 micrograms/ml): 28 meq/l
- Ca^+ (Subject #1, 0.1 micrograms/ml): 10.1 mg/dL
- Cl^- (Subject #1, 0.1 micrograms/ml): 106 meq/l
- Creat (Subject #1, 0.1 micrograms/ml): 0.9 mg/dL
- ESR (Subject #1, 0.1 micrograms/ml): 5 mm/hr
- Hb (Subject #1, 0.1 micrograms/ml): 15.8 gm/dl
- Hct (Subject #1, 0.1 micrograms/ml): 46.7%
- K^+ (Subject #1, 0.1 micrograms/ml): 4.2 meq/l
- LDH (Subject #1, 0.1 micrograms/ml): 154 IU/l
- MCH (Subject #1, 0.1 micrograms/ml): 30.8
- MCHC (Subject #1, 0.1 micrograms/ml): 33.8
- MCV (Subject #1, 0.1 micrograms/ml): 91.0
- Na^+ (Subject #1, 0.1 micrograms/ml): 140 meq/l
- SGOT (Subject #1, 0.1 micrograms/ml): 19 IU/l
- WBC (Subject #1, 0.1 micrograms/ml): 8.1 /cu mm
- albumin (Subject #1, 0.1 micrograms/ml): 4.8 gm/dl
- alk phos (Subject #1, 0.1 micrograms/ml): 76 IU/l
- cholesterol (Subject #1, 0.1 micrograms/ml): 255 mg/dL
- glucose (Subject #1, 0.1 micrograms/ml): 107 mg/dL
- lymphs (Subject #1, 0.1 micrograms/ml): 34.9%
- monos (Subject #1, 0.1 micrograms/ml): 4.2%
- neutr (Subject #1, 0.1 micrograms/ml): 60.9%
- phosphate (Subject #1, 0.1 micrograms/ml): 3.7 mg/dL
- total protein (Subject #1, 0.1 micrograms/ml): 7.5 gm/dl
- uric acid (Subject #1, 0.1 micrograms/ml): 5.7 mg/dL
- BUN (Subject #1, 1.0 micrograms/ml): 12 mg/dL
- Bilirubin (Subject #1, 1.0 micrograms/ml): 0.5 mg/dL
- Bilirubin (direct) (Subject #1, 1.0 micrograms/ml): 0.1
- CO2 (Subject #1, 1.0 micrograms/ml): 28 meq/l
- Ca^+ (Subject #1, 1.0 micrograms/ml): 10.2 mg/dL
- Cl^- (Subject #1, 1.0 micrograms/ml): 106 meq/l
- Creat (Subject #1, 1.0 micrograms/ml): 0.9 mg/dL
- ESR (Subject #1, 1.0 micrograms/ml): 4 mm/hr
- Hb (Subject #1, 1.0 micrograms/ml): 16.0 gm/dl
- Hct (Subject #1, 1.0 micrograms/ml): 47.6%
- K^+ (Subject #1, 1.0 micrograms/ml): 4.3 meq/l
- LDH (Subject #1, 1.0 micrograms/ml): 153 IU/l
- MCH (Subject #1, 1.0 micrograms/ml): 30.6
- MCHC (Subject #1, 1.0 micrograms/ml): 33.6
- MCV (Subject #1, 1.0 micrograms/ml): 91.1
- Na^+ (Subject #1, 1.0 micrograms/ml): 137 meq/l
- SGOT (Subject #1, 1.0 micrograms/ml): 15 IU/l
- WBC (Subject #1, 1.0 micrograms/ml): 8.0 /cu mm
- albumin (Subject #1, 1.0 micrograms/ml): 4.8 gm/dl
- alk phos (Subject #1, 1.0 micrograms/ml): 75 IU/l
- cholesterol (Subject #1, 1.0 micrograms/ml): 258 mg/dL
- glucose (Subject #1, 1.0 micrograms/ml): 105 mg/dL
- lymphs (Subject #1, 1.0 micrograms/ml): 32.9%
- monos (Subject #1, 1.0 micrograms/ml): 5.5%
- neutr (Subject #1, 1.0 micrograms/ml): 61.6%
- phosphate (Subject #1, 1.0 micrograms/ml): 3.6 mg/dL
- total protein (Subject #1, 1.0 micrograms/ml): 7.5 gm/dl
- uric acid (Subject #1, 1.0 micrograms/ml): 5.6 mg/dL
- BUN (Subject #2, 0.1 micrograms/ml): 9 mg/dL
- Bilirubin (Subject #2, 0.1 micrograms/ml): 0.5 mg/dL
- Bilirubin (direct) (Subject #2, 0.1 micrograms/ml): 0.1
- CO2 (Subject #2, 0.1 micrograms/ml): 27 meq/l
- Ca^+ (Subject #2, 0.1 micrograms/ml): 9.5 mg/dL
- Cl^- (Subject #2, 0.1 micrograms/ml): 108 meq/l
- Creat (Subject #2, 0.1 micrograms/ml): 0.7 mg/dL
- ESR (Subject #2, 0.1 micrograms/ml): 1 mm/hr
- Hb (Subject #2, 0.1 micrograms/ml): 13.0 gm/dl
- Hct (Subject #2, 0.1 micrograms/ml): 37.8%
- K^+ (Subject #2, 0.1 micrograms/ml): 4.4 meq/l
- LDH (Subject #2, 0.1 micrograms/ml): 110 IU/L
- MCH (Subject #2, 0.1 micrograms/ml): 31.4
- MCHC (Subject #2, 0.1 micrograms/ml): 34.4
- MCV (Subject #2, 0.1 micrograms/ml): 91.4
- Na^+ (Subject #2, 0.1 micrograms/ml): 140 meq/l
- SGOT (Subject #2, 0.1 micrograms/ml): 15 IU/L
- WBC (Subject #2, 0.1 micrograms/ml): 6.7 /cu mm
- albumin (Subject #2, 0.1 micrograms/ml): 4.5 gm/dl
- alk phos (Subject #2, 0.1 micrograms/ml): 51 IU/l
- cholestrol (Subject #2, 0.1 micrograms/ml): 133 mg/dL
- glucose (Subject #2, 0.1 micrograms/ml): 96 mg/dL
- lymphs (Subject #2, 0.1 micrograms/ml): 33.1%
- monos (Subject #2, 0.1 micrograms/ml): 4.9%
- neutr (Subject #2, 0.1 micrograms/ml): 62.0%
- phosphate (Subject #2, 0.1 micrograms/ml): 3.0 mg/dL
- total protein (Subject #2, 0.1 micrograms/ml): 6.4 g/dL
- uric acid (Subject #2, 0.1 micrograms/ml): 4.2 mg/dL
- BUN (Subject #2, 1.0 micrograms/ml): 8 mg/dL
- Bilirubin (Subject #2, 1.0 micrograms/ml): 0.5 mg/dL
- Bilirubin (direct) (Subject #2, 1.0 micrograms/ml): 0.1
- CO2 (Subject #2, 1.0 micrograms/ml): 27 meq/l
- Ca^+ (Subject #2, 1.0 micrograms/ml): 9.5 mg/dL
- Cl^- (Subject #2, 1.0 micrograms/ml): 108 meq/l
- Creat (Subject #2, 1.0 micrograms/ml): 0.6 mg/dL
- ESR (Subject #2, 1.0 micrograms/ml): 1 mm/hr
- Hb (Subject #2, 1.0 micrograms/ml): 12.9 gm/dl
- Hct (Subject #2, 1.0 micrograms/ml): 37.3%
- K^+ (Subject #2, 1.0 micrograms/ml): 4.5 meq/l
- LDH (Subject #2, 1.0 micrograms/ml): 97 IU/L
- MCH (Subject #2, 1.0 micrograms/ml): 31.6
- MCHC (Subject #2, 1.0 micrograms/ml): 34.6
- MCV (Subject #2, 1.0 micrograms/ml): 91.3
- Na^+ (Subject #2, 1.0 micrograms/ml): 141 meq/l
- SGOT (Subject #2, 1.0 micrograms/ml): 14 IU/L
- WBC (Subject #2, 1.0 micrograms/ml): 6.4 /cu mm
- albumin (Subject #2, 1.0 micrograms/ml): 4.4 gm/dl
- alk phos (Subject #2, 1.0 micrograms/ml): 52 IU/l
- cholestrol (Subject #2, 1.0 micrograms/ml): 131 mg/dL
- glucose (Subject #2, 1.0 micrograms/ml): 95 mg/dL
- lymphs (Subject #2, 1.0 micrograms/ml): 32.0
- monos (Subject #2, 1.0 micrograms/ml): 5.2%
- neutr (Subject #2, 1.0 micrograms/ml): 62.8%
- phosphate (Subject #2, 1.0 micrograms/ml): 3.1 mg/dL
- total protein (Subject #2, 1.0 micrograms/ml): 6.3 g/dL
- uric acid (Subject #2, 1.0 micrograms/ml): 4.1 mg/dL
